These results are taken from patent publication US8541628B2, “Complex cationic lipids having quaternary nitrogens therein” (Vical Incorporated, priority 1995, dated 2013).

Entries after “also recorded” stand apart in the source; their conditions may differ.

In one experiment the test system is murine B16 tumor cells. Description: Intraperitoneal tumor assay (CAT DNA, CAT activity in tumors). The experiment is classed as in vivo, C57/B16 mice. Particulars: 0.5 mg CAT DNA i.p., 10:1 molar ratio of cytofectin:DNA, tumors two days later, FIG. 5; for CAT expression in tumor cells: control DNA alone. As to the method:
Two hundred thousand murine B16 tumor cells in 500 μl RPMI were injected intraperitoneally into C57/B16 mice at day 0. At day 7-14, mice received intraperitoneal injections of 0.5 mg CAT DNA in 1.5 ml saline containing cytofectin at a 10:1 molar ratio of cytofectin:DNA. The cationic lipids used were DMRIE, GAP-DMRIE, GAP-DLRIE, and GMU-DLRIE. Two days later, tumors were collected, extracted and assayed for CAT activity as described in Example 7. The CAT activities observed with the cytofectin formulations is compared to a control receiving DNA alone in FIG. 5. […] CAT activity was greatest in cells transfected with DMRIE.

For experiment [1], the system named is influenza nuclear protein (NP) antibody titers. The experiment is classed as in vivo, Balb/c mice. Particulars: cytofectin:DOPE 1:1, pDNA-phosphate/cytofectin 4:1, serum at 6 weeks, FIG. 6; for activity in NP antibody assay compared with naked DNA alone: 10 μgr pDNA per animal, day 0 and 3 weeks.
For experiment [2], the system named is C2C12 mouse myoblast muscle cells. Description: In vitro transfection of C2C12 cells (pRSV lacZ, β-galactosidase expression; DMRIE as reference standard). The class given is cell-based. The conditions noted are these: for Activity C2C12: cytofectin activity relative to DMRIE, comparison symbols, key not given. Here is the method:
(§1) Solutions of a DMRIE or GMU-DMRIE in chloroform were prepared on a weight to volume (w/v) basis. Aliquots of cationic lipid and neutral lipid (when used) were transferred aseptically to sterile vials in amounts calculated to provide the relative and absolute lipid concentrations desired upon reconstitution with 1 ml of aqueous vehicle. Bulk chloroform was removed with a stream of dry nitrogen, and the vials were treated with high vacuum overnight to remove any residual solvent.
(§2) Plasmid DNA at 5 mg/ml of phosphate buffered saline (PBS) as well as the dried, formulated cytofectin-neutral lipid mixture were suspended in OPTIMEM™ (Gibco BRL) and mixed together in 96 well plates at the desired mass/molar ratio as indicated in the Tables. The DNA-lipid complexes were added to the cells within 2 hours after mixing.
(§3) All cells were passaged 1:5 to 1:10 in 10% fetal bovine serum (FBS) and Dulbecco's Modified Eagles medium (DMEM). All cells were expanded through 10 doubling passages upon receipt and aliquots were stored frozen. Upon re-expansion, all cells were used for transfection studies before another 10 passages.
(§4) On day 0, 20,000 cells in 100 microliters 10% FEBS/90% DMEM were seeded into each well of 96-well culture plates (Nunc) and cultured overnight in a 5% CO2 incubator at 37° C. On Day 1, the medium was aspirated carefully without dislodging cells, and 100 microliters of GMU-DMRIE/pRSV lacZ/DOPE in serum-free OPTIMEM™ (Gibco BRL) was added. DMRIE was used as a reference standard. The lacZ gene encodes the enzyme β-galactosidase which can be assayed colorimetricaly. The cationic lipid:DOPE ratios varied for each well. After 4 hours of culture, 50 microliters 30% FBS/70% OPTIMEM™ was added to each well. On Day 2, each well received 100 microliters 10% FEBS/90% OPTIMEM™. On Day 3, the medium was removed and 50 microliters lysis buffer (0.1% Triton-X100 in 250 mM Tris, pH 8.0) was added and the plates were stored at […] for at least 20 hours.

The next experiment deals with COS7 monkey kidney cells. As to the kind of experiment: In vitro transfection of COS7 cells (pRSV lacZ, β-galactosidase expression; DMRIE as reference standard). The class given is cell-based. The conditions noted are these: for Activity Cos7: cytofectin activity relative to DMRIE, comparison symbols, key not given. Here is the method: as §1, §2, §3, §4
The subject of the next experiment is BF16F10 melanoma tumors. Description: Subcutaneous melanoma tumor model (intratumoral cytofectin/CAT plasmid complex, CAT activity). The experiment is classed as in vivo, BALB/C mice. Particulars: intratumoral injection; tumors collected after 48 hours; FIG. 7. As to the method:
Tumors are prepared by injecting a suspension of tumor cells subcutaneously on the side of a mouse strain which is compatible with the specific tumor type. The tumors are periodically measured. Once they have reached a size suitable for injection, the tumor volume is approximated based on the measured diameter assuming a spherical tumor. A complex of the cytofectin to be evaluated with a plasmid encoding a reporter gene in a volume of saline equal to the volume of the tumor to be treated is then injected at a flow rate optimized for the particular tumor type. After an appropriate time, the tumors are collected, frozen, then ground up. The reporter gene product is subsequently extracted and the quantity which was expressed is determined using extraction and assay conditions appropriate for the particular gene product being used. A variety of tumor types may be evaluated using this general technique, and different reporter genes are more or less appropriate depending on the tumor type. A specific example of this assay involving melanoma tumors is provided in Example 14 below.
BF16F10 melanoma tumors are propagated in 90% RPMI 1640/10% Fetal Bovine Serum. The tumors are injected subcutaneously into the side of BALB/C mice in 75 μL of a suspension containing approximately 10^6 cells/mL tissue culture medium. When the tumors have reached 4.5 to 7 mm in diameter the volume of each individual tumor is calculated by measuring the diameter of the tumor and assuming a spherical tumor. For each individual tumor, a volume of the cytofectin/CAT plasmid complex in saline equivalent to the calculated volume of the tumor is injected into the tumor at a rate of 2 mL/min. After 48 hours, the tumors are collected, frozen, ground up, and extracted with 1.5 mL of extraction buffer as described in Example 3. CAT activity is quantitated as described below. […]

Turning to `CCCCCCCCCCCCCCOCC(C[N+](C)(C)CCO)OCCCCCCCCCCCCCC.[Br-]` (racemic) [DMRIE, 1-propanaminium, N-(2-hydroxyethyl)-N,N-dimethyl-2,3-bis(tetradecyloxy)-bromide, (±)-, reference compound], in the experiment with murine B16 tumor cells, the “CAT activity, cytofectins compared with one another” value was “greatest” and the “CAT expression in tumor cells” value is “significant CAT expression”.

For the compound `CCCCCCCCCCCCCCOCC(C[N+](C)(C)CCNC(=O)NC)OCCCCCCCCCCCCCC.[Br-]` (stereo not drawn) [BMU, β-aminoethyl-DMRIE,Methyl Urea], in experiment [1], the “activity in NP antibody assay compared with naked DNA alone” value (shortened to “activity … compared with naked DNA alone”) was “greater activity than naked DNA alone” and the “activity in NP antibody assay, among the compounds tested” value is “particularly high activity”. In addition, in experiment [2], the “Activity C2C12” value is recorded as “≦”. Moreover, in the experiment with COS7 monkey kidney cells, the “Activity Cos7” value is “≧”.

Consider `CCCCCCCCCCCCOCC(C[N+](C)(CCCN)CCCN)OCCCCCCCCCCCC` (centres unmarked) [BPA-DLRIE], for which, in experiment [1], the “activity … compared with naked DNA alone” value is given as “greater activity than naked DNA alone” and the “activity in NP antibody assay, among the compounds tested” value is reported as “particularly high activity”.

As to `CCCCCCCCCCCCCCOCC(C[N+](C)(CCCN)CCCN)OCCCCCCCCCCCCCC` (centres unmarked) [BPA-DMRIE], the “CAT activity in subcutaneous melanoma, among the compounds tested” value (“CAT activity in subcutaneous melanoma” below) in the experiment with BF16F10 melanoma tumors was “particularly high activity”. For the same compound, in experiment [1], the “activity … compared with naked DNA alone” value was “greater activity than naked DNA alone” and the “activity in NP antibody assay, among the compounds tested” value was “particularly high activity”.

For `CCCCCCCCCCCCCCOCC(C[N+](C)(C)CCCCNC(=O)NC)OCCCCCCCCCCCCCC.[Br-]` (centres unmarked) [DMU, δ-aminobutyl DMRIE, Methyl Urea], in experiment [2], the “Activity C2C12” value is given as “≧”.

Consider `CCCCCCCCCCCCOCC(C[N+](C)(C)CCCN)OCCCCCCCCCCCC` (centres unmarked) [GAP-DLRIE], for which, in the experiment on murine B16 tumor cells, the “CAT activity, cytofectins compared with one another” value is on record as “nearly as effective as DMRIE; also recorded: significant activity” and the “CAT expression in tumor cells” value is recorded as “significant CAT expression”.

`CCCCCCCCCCCCCCOCC(C[N+](C)(C)CCCN)OCCCCCCCCCCCCCC` (centres unmarked) [GAP-DMRIE]: in the experiment with murine B16 tumor cells, the “CAT activity, cytofectins compared with one another” value was “significant activity” and the “CAT expression in tumor cells” value is “significant CAT expression”.

With `CCCCCCCCCCCCCCOCC(C[N+](C)(C)CCCNC(=O)NC)OCCCCCCCCCCCCCC` (centres unmarked) [GMU, γ-aminopropyl-DMRIE,Methyl Urea], in experiment [2] (C2C12 cells), the “levels of total β-gal activity compared with DMRIE” value is reported as “significantly higher levels of total activity than DMRIE”. For the same compound, the “Total β-gal expression” value in experiment [2] (C2C12 cells, GMU-DMRIE alone (no DOPE)) is “significantly decreased”; in the experiment on COS7 monkey kidney cells (COS7 cells, GMU-DMRIE alone (no DOPE)) it was “significantly decreased”. In addition, the “Activity C2C12” value in experiment [2] was “≈”. Further, the “levels of β-gal activity compared with DMRIE” value in the experiment on COS7 monkey kidney cells (COS7 cells) is given as “higher levels of activity than those achieved by DMRIE”. Further, the “total expression of β-gal” value with COS7 monkey kidney cells (COS7 cells, GMU-DMRIE/DOPE ratio of 75:25) is reported as “highly effective”. Also, the “Activity Cos7” value in the experiment with COS7 monkey kidney cells is reported as “≧”.

As to `CCCCCCCCCCCCOCC(C[N+](C)(C)CCCNC(=O)NC)OCCCCCCCCCCCC` (centres unmarked) [GMU-DLRIE], the “CAT expression in tumor cells” value in the experiment with murine B16 tumor cells is given as “significant CAT expression”.

Consider `CCCCCCCCCCCCCCOCC(C[N+](C)(C)CCCNC(N)=S)OCCCCCCCCCCCCCC` (centres unmarked) [GTU-DMRIE, DMRIE-γ-thiourea], for which, in the experiment on BF16F10 melanoma tumors, the “CAT activity in subcutaneous melanoma” value is reported as “particularly high activity”.

Consider `CCCCCCCCCCCCCCOCC(C[N+](C)(CCCN)CCCCN)OCCCCCCCCCCCCCC` (centres unmarked) [PABA-DMRIE], for which, in experiment [1], the “activity … compared with naked DNA alone” value is recorded as “greater activity than naked DNA alone” and the “activity in NP antibody assay, among the compounds tested” value is “particularly high activity”.

As to DMRIE Methyl carbamate [βMC], the “Activity C2C12” value in experiment [2] is recorded as “≈”. The “Activity Cos7” value with COS7 monkey kidney cells is “≈”.

For “DMRIE carboxylate (methionine-methyl ester) amide [DOx-Met-OMe]”, in experiment [2], the “Activity C2C12” value is on record as “<”.

Turning to “Hydroxybutyl DMRIE Methyl Carbamate [δMC]”, the “Activity C2C12” value in experiment [2] is given as “≈”. The “Activity Cos7” value in the experiment with COS7 monkey kidney cells is listed as “≈”.

Consider “Hydroxypropyl DMRIE Methyl Carbamate [ΥMC]”, for which the “Activity C2C12” value in experiment [2] is “≈”. In addition, the “Activity Cos7” value in the experiment with COS7 monkey kidney cells is “≈”.

As to Serine-δ-DMRIE amide [δ-ser-DMRIE], the “Activity C2C12” value in experiment [2] is on record as “≦”. For the same compound, the “Activity Cos7” value in the experiment with COS7 monkey kidney cells is “≈”.

“pGlutamate-histidine-proline-γ-DMRIE amide [TRH-γ-DMRIE]”: the “Activity Cos7” value with COS7 monkey kidney cells is reported as “≈”.

Regarding “γ-aminopropyl-DMRIE, Arginine Methyl Ester Urea [Arg(OMe)-GU-DMRIE]”, in the experiment with BF16F10 melanoma tumors, the “CAT activity in subcutaneous melanoma” value is “particularly high activity”.

As to “γ-aminopropyl-DMRIE, α-arabonosyl thiourea [Ara-TU-DMRIE]”, the “activity … compared with naked DNA alone” value in experiment [1] was “greater activity than naked DNA alone”. Besides, the “Activity C2C12” value in experiment [2] is reported as “<”. For the same compound, the “Activity Cos7” value in the experiment on COS7 monkey kidney cells is given as “≈”.

Consider “γ-aminopropyl-DMRIE,α-galactosyl thiourea [Gal-TU-DMRIE]”, for which the “activity … compared with naked DNA alone” value in experiment [1] is “greater activity than naked DNA alone”. Besides, the “Activity C2C12” value in experiment [2] is on record as “≈”. Besides, the “Activity Cos7” value in the experiment on COS7 monkey kidney cells is listed as “≧”.

For the compound “γ-aminopropyl-DMRIE,α-glucosyl thiourea [Glc-TU-DMRIE]”, the “activity … compared with naked DNA alone” value in experiment [1] is “greater activity than naked DNA alone”. Moreover, the “Activity C2C12” value in experiment [2] is reported as “≦”. In addition, the “Activity Cos7” value in the experiment with COS7 monkey kidney cells was “≧”.
